The results in this text go back to patent publication US8613962B2, “Prophylactic or alleviating agent for peripheral nerve disorder induced by anti-cancer agent” (Kyushu University, National University Corporation, priority 2007, dated 2013).

For data set [1], the system named is rat peripheral nerve disorder induced by oxaliplatin. Conditions: rats; oxaliplatin alone 4 mg/kg i.p.; second week; FIG. 6.
The test system is the same in data set [2]. The following applies: rats; oxaliplatin alone 4 mg/kg i.p. twice per week; second week; FIG. 5.
Data set [3] has as its system PC12 cells. Type of data set: cell-based, rat. Conditions: forskolin-induced, 10 ng/mL paclitaxel only, 168 hours, FIG. 3.
Data set [4] deals with rat peripheral nerve disorder induced by paclitaxel. The format is in vivo. The following applies: SD male rats; paclitaxel alone 6 mg/kg i.p.; FIG. 2.
Data set [5] shares this test system. Type of data set: in vivo. The following applies: SD male rats; paclitaxel alone 6 mg/kg i.p. once a week for 4 weeks; FIG. 1.
Data set [6] has the same test system. The format is in vivo. The following applies: rats; paclitaxel alone.
Description: 7 and 8-week-old SD male rats were used as experimental animals and separated into three groups of a control group, group administered with paclitaxel, and group administered with paclitaxel and the test substance (group administered with paclitaxel+test substance). To the group administered with paclitaxel, paclitaxel (6 mg/kg) was intraperitoneally administered once a week for 4 weeks in a total of 4 times. To the group administered with paclitaxel+test substance, the test substance (200 NU/kg) was orally administered three times a week, that is, just before the paclitaxel administration and on days 1 and 2 after the paclitaxel administration, for 4 weeks in a total of 12 times. To the control group, a solvent (polyoxyethylene castor oil:ethanol=1:1) used in the paclitaxel administration was similarly administered.
In data set [7] the test system is DRG cells. Type of data set: cell-based, rat. Conditions: 10 ng/mL paclitaxel only, 168 hours, FIG. 4.

For `O=C1[O][Pt]2([NH][C@@H]3CCCC[C@H]3[NH]2)[O]C1=O` [oxaliplatin], the “latent time to posterior foot avoidance (cold plate test, 4° C.)” value in data set [1] is “remarkably shortened”. The “50% reaction threshold value (von Frey test), compared with control group” value in data set [2] is recorded as “remarkably lowered”.

Regarding `CC(=O)O[C@H]1C(=O)[C@@]2(C)[C@H]([C@H](OC(=O)c3ccccc3)[C@]3(O)C[C@H](OC(=O)[C@H](O)[C@@H](NC(=O)c4ccccc4)c4ccccc4)C(C)=C1C3(C)C)[C@]1(OC(C)=O)CO[C@@H]1C[C@@H]2O` [paclitaxel], the “neurite outgrowth (neurite length)” value in data set [3] and in data set [7] was “inhibited” in each case. The “latent time to avoidance reaction (acetone test, cold stimuli)” value in data set [4] is on record as “remarkably shortened”. Besides, the “50% reaction threshold value (von Frey test), compared with control group” value in data set [5] is recorded as “remarkably lowered”. The “latent time (plantar test, heat stimuli)” value in data set [6] was “not shortened”.
